Test results as given in ChEMBL document CHEMBL1806412, “Discovery of novel fatty acid synthase (FAS) inhibitors based on the structure of ketoaceyl synthase (KS) domain” (Bioorg Med Chem Lett, 2011).
Calls of active or inactive are those of the source. No cut-off for these calls is given here.

What was measured:
[1] = test system: NCI-H1975; experiment: Growth inhibition of human NCI-H1975 cells at 0.041 to 10 ug/ml after 72 hrs by MTT assay; type: functional, cell-based
[2] = test system: SW480; experiment: Growth inhibition of human SW480 cells overexpressing FAS gene after 72 hrs by MTT assay; type: functional, cell-based; details: SW480, 72 h
[3] = test system: MDA-MB-468; experiment: Growth inhibition of human MDA-MB-468 cells overexpressing FAS gene after 72 hrs by MTT assay; type: functional, cell-based; details: MDA-MB-468, 72 h
[4] = target: Fatty acid synthase (Gallus gallus, UniProt P12276); experiment: Inhibition of chicken FAS by spectrophotometric analysis
Fatty acid synthase, sequence (P12276 whole entry): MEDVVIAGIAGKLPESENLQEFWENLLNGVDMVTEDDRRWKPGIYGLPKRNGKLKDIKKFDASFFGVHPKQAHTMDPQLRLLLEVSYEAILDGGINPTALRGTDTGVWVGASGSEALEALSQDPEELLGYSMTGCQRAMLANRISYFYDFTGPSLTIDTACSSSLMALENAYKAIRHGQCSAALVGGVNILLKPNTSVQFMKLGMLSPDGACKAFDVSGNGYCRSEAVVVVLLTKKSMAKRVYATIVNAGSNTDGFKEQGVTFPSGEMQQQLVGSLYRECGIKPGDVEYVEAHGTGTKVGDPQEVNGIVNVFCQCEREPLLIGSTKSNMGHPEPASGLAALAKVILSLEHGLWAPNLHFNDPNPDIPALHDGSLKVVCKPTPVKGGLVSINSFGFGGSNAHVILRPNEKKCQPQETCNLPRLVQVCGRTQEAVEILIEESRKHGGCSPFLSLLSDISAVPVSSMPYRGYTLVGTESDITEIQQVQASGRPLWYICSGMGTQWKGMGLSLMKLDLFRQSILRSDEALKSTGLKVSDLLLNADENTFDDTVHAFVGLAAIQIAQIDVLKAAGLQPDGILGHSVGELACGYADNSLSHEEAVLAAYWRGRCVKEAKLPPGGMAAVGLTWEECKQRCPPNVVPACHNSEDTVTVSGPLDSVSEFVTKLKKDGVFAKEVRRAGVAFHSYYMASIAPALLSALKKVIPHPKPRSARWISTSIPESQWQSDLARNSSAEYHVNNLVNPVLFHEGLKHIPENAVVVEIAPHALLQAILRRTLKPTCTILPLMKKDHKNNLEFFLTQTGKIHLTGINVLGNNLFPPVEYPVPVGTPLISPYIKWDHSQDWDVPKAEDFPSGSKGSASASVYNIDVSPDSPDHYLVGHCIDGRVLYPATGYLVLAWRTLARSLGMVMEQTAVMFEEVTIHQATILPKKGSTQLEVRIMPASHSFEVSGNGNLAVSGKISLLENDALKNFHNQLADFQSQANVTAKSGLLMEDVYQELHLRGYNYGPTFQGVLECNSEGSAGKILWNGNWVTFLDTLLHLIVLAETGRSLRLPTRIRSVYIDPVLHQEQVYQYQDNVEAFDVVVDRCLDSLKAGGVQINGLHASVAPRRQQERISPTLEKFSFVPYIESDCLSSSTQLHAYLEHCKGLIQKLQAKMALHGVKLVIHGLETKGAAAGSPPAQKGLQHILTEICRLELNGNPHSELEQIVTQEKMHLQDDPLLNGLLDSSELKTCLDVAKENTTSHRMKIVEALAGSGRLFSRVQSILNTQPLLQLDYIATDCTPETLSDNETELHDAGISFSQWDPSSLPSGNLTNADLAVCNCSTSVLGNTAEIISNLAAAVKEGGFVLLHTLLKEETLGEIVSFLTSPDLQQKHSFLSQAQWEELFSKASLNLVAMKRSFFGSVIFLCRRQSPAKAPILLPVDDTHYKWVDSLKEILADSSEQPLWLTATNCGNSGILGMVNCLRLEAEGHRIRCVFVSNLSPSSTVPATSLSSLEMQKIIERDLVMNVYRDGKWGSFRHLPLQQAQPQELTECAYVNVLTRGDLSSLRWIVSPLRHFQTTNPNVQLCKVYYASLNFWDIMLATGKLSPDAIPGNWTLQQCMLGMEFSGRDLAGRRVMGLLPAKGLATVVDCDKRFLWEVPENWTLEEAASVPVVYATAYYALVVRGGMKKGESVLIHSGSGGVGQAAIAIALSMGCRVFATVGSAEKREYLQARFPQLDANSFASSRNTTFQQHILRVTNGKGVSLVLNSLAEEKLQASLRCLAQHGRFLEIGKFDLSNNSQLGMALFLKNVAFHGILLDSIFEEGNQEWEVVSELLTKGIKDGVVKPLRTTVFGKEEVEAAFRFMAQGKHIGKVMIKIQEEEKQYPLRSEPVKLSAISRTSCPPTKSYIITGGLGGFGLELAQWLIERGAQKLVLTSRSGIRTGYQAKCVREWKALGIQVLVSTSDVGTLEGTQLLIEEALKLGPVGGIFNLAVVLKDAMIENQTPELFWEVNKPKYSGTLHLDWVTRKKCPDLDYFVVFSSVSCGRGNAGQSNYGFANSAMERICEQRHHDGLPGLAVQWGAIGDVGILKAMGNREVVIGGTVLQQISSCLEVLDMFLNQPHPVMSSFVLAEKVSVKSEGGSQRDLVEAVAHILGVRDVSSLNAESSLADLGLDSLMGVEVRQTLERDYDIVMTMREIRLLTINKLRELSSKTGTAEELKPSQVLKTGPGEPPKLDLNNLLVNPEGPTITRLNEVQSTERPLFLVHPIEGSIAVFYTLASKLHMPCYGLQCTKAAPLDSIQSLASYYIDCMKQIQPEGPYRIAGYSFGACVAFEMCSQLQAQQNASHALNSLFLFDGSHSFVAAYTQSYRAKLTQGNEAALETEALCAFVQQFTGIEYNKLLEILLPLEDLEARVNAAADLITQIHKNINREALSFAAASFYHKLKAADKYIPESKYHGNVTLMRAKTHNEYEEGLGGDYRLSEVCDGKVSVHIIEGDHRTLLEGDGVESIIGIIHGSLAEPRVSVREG

SMILES	IC50 [2] [µM]	IC50 [3] [µM]	IC50 [4] [µM]	inhibition [1]
CC1=C(C(=O)Nc2ccccc2)[C@@H](c2ccc(OCc3ccccc3)cc2)n2ncnc2N1	19.9			inactive
CCn1c(SCC(=O)Nc2cc(Cl)ccc2Cl)nnc1C(C)(C)NC(=O)c1cccc(C)c1	14.7			inactive
O=[N+]([O-])c1cccc(-c2csc(N/N=C\c3ccccn3)n2)c1	1.5	8.3	12.7	inactive
CC1=NC2N=NNN2[C@@H](c2ccc(OCc3ccccc3)cc2)C1C(=O)Nc1ccccc1 (some centres not stated)	11.1	19.3		inactive

Continued, in another order:

IC50 [2] [µM]	IC50 [3] [µM]	IC50 [4] [µM]	SMILES	inhibition [1]
7.5			COc1cc(OC)c([C@H]2NC(=S)NC(C)=C2C(=O)Nc2ccccc2Cl)cc1OC	inactive
	8.4		CC1=C(C(=O)Nc2ccccn2)C(c2ccc(Br)cc2)NC(S)=N1 (configuration not stated)	inactive
14.2			CC1=C(C(=O)Nc2ccc(Cl)cc2)C(c2cc(Br)ccc2O)NC(=S)N1 (configuration not stated)	inactive
